Reference: PubChem BioAssay (NCI)
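The compound was tested at five concentrations on cells cultured in 96-well plates, with a 48-hour exposure period. At the TGI there is no net growth.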

Legend:
Test in all cases: DTP human tumour cell line panel, 48 h
SF-295 CNS = test system: SF-295 CNS
SF-539 CNS = test system: SF-539 CNS
OVCAR-4 ovarian = test system: OVCAR-4 ovarian
HCT-15 colon = test system: HCT-15 colon
RXF 393 renal = test system: RXF 393 renal
HCT-116 colon = test system: HCT-116 colon
HS 578T breast = test system: HS 578T breast
HCC-2998 colon = test system: HCC-2998 colon
UACC-257 melanoma = test system: UACC-257 melanoma
A498 renal = test system: A498 renal
MALME-3M melanoma = test system: MALME-3M melanoma

SMILES	TGI (SF-295 CNS) [µM]	TGI (SF-539 CNS) [µM]	TGI (OVCAR-4 ovarian) [µM]	TGI (HCT-15 colon) [µM]	TGI (RXF 393 renal) [µM]	TGI (HCT-116 colon) [µM]	TGI (HS 578T breast) [µM]	TGI (HCC-2998 colon) [µM]	TGI (UACC-257 melanoma) [µM]	TGI (A498 renal) [µM]	TGI (MALME-3M melanoma) [µM]
N#Cc1nc(C(F)(F)F)oc1N	> 100	> 100	> 100	> 100	> 100	> 100	> 100	> 100	> 100	> 100	> 100
COC(=O)c1ccc(CCC2=CC(=O)C(Br)=CC2=O)cc1	37.4	31.8	30.9	27.6	32.3	30.3	45	29.1	29	36.5	30.6
CCOC(=O)c1[nH]cnc1/N=N/N(C)N	> 100	> 100	> 100	> 100	> 100	> 100	> 100	> 100	> 100	> 100	> 100
OCc1c2c(cc3c1CC1(C3)Cc3cc4c(c(CO)c3C1)CCC4)CCC2	26.9	32.1	23.5	34.6	32.7	26.4	36.9	35	23.8	30.3	30
O=c1[nH]nc(Cc2ccccc2)n1/N=C/c1ccc([N+](=O)[O-])o1	36.2	8.94	24.4	> 100	7.94	6.13	7.29	71.6	19.7	23.1	3.21
[N-]=[N+]=NC1=NNC2(C(=O)N1)c1ccccc1-c1ccccc12	> 100	> 100	> 100	> 100	> 100	27.4	> 100	> 100	> 100	> 100	33.3
Cc1c(C)c2c(c(N)c1C#N)C(=O)N(OS(=O)(=O)c1ccccc1)C2=O	> 100	34.2	41.3	46	30.7	68.1	> 100	> 100	68	> 100	31.8
O=c1[nH]c2nccnc2c2c([N+](=O)[O-])cccc12	> 100	> 100	> 100	> 100	> 100	> 100	> 100	> 100	–	> 100	> 100
Cc1c(NC(=S)N/N=C\C(=N/NC(=S)Nc2c(C)n(C)n(-c3ccccc3)c2=O)c2ccccc2)c(=O)n(-c2ccccc2)n1C	> 100	> 100	> 100	> 100	> 100	> 100	> 100	> 100	> 100	> 100	> 100
COc1ccc(C2c3cc4c(cc3OC(NNC(N)=O)C2C)OCO4)cc1 (stereo not drawn)	21.1	4.86	> 100	36.3	54.5	21.5	> 100	35	> 100	8.59	> 100
COC(=O)c1c(O)ccc2c1c1c(n2Cc2ccc(OC)cc2)C(=O)c2ccccc2C1=O	39	29.1	35.2	16.7	34.3	19.7	58.1	7.18	94.3	47.2	64.3
c1ccc2c(c1)CCN(C1=NCCO1)C2	> 10	> 10	> 10	> 10	> 10	> 10	> 10	> 10	> 10	> 10	> 10
O=c1[nH]nc(-c2ccc([N+](=O)[O-])cc2)n1/N=C/c1ccc([N+](=O)[O-])cc1	> 100	> 100	> 100	> 100	> 100	> 100	> 100	> 100	> 100	> 100	> 100
CN(C)Cc1cc(C(C)(C)C)cc(CNC2CCCCC2)c1O	57.1	63.5	> 100	> 100	> 100	71.5	> 100	23.7	79.8	> 100	64
O=c1c2ncn(C3CCCCO3)c2n(-c2ccccc2)c(=S)n1-c1ccccc1 (stereo not drawn)	51.7	32.4	> 87.2	> 100	25.4	> 100	53.6	> 100	> 100	89.6	> 100
CC(=O)[C@H]1CC[C@H]2[C@@H]3CCC4=CC(=O)CC[C@]4(C)[C@H]3CC[C@]12C	76	34.1	79.3	69.3	57.9	28.5	19.7	31.4	27.2	67.1	35.8
Nc1nc2cc(CNc3ccc(C(=O)O)cc3)ccc2nc1-c1ccccc1	> 100	> 100	> 100	> 100	> 100	> 100	> 100	> 100	> 100	> 100	> 100
CCOP(=O)(CC1CC(O)(CNc2cc(Cl)nc(N)n2)C1)OCC (stereo not drawn)	> 100	> 100	> 100	> 100	> 100	> 100	> 100	> 100	> 100	> 100	> 100

SMILES	TGI (SF-295 CNS) [µM]	TGI (SF-539 CNS) [µM]	TGI (OVCAR-4 ovarian) [µM]	TGI (HCT-15 colon) [µM]	TGI (RXF 393 renal) [µM]	TGI (HCT-116 colon) [µM]	TGI (HS 578T breast) [µM]	TGI (HCC-2998 colon) [µM]	TGI (UACC-257 melanoma) [µM]	TGI (A498 renal) [µM]	TGI (MALME-3M melanoma) [µM]
CC1=NC2(CCCCC2)N(Cl)C(=O)C1SC#N (stereo not drawn)	36.1	35.9	46.2	66.6	32.3	–	> 100	42	–	> 100	41.9
CCCN=C1Nc2ccccc2[C@@H]2N(C)c3ccccc3C(C)C[C@]12C (stereo partly drawn)	30.9	30.5	23.4	56.4	37.2	30.4	41.9	26.3	25.6	28.6	32.5
CN1c2ccccc2C(=O)NC12CCN(Cc1ccccc1)CC2	> 100	> 100	> 100	> 100	> 100	> 100	> 100	> 100	> 100	> 100	> 100
Fc1ccc(C2NC(=S)NC3=C2CCOc2c3ccc3ccccc23)cc1 (stereo not drawn)	> 100	> 100	> 100	> 100	> 100	30.1	> 100	69.1	> 100	79.5	> 100
CC1(C)C2CCC1(C)C(N/C(=C(/C(Cl)=C(Cl)Cl)[N+](=O)[O-])n1nnc3ccccc31)C2 (stereo not drawn)	52.3	> 100	60.7	93.4	36.5	> 100	43.6	> 100	> 100	37.5	39.4
O=C(CCCC1Cc2ccccc2C1=O)c1ccccc1 (stereo not drawn)	> 100	> 100	> 100	> 100	> 100	> 100	> 100	> 100	> 100	> 100	> 100
Cc1c(C#N)c2nnn(-c3ccc([N+](=O)[O-])cc3)c(=O)n2c1-c1ccccc1	14	28.1	27.5	24.4	31.2	19	> 100	20	47.6	29.5	30.7
C/C=C1/CN2[C@@H](C3=C[C@@H]4[C@@H]5N(C3=O)c3ccccc3[C@@]53CCN5C/C(=C/C)[C@@H]4C[C@H]53)C[C@@]34c5ccccc5N5C(=O)CC=C([C@H]1C[C@H]23)[C@H]54	16.4	2.87	19.9	10.3	10.6	9.07	17.3	8.75	2.9	14.5	12.5
CCN(CC)c1ccc2c(c1)Oc1ccc(N(C(C)=O)c3ccccc3)cc1C21OC(=O)c2ccccc21 (stereo not drawn)	> 100	> 100	> 100	> 100	> 100	> 100	> 100	> 100	> 100	> 100	> 100
COc1ccc(/C=C2\Sc3nnc(C)n3N=C2c2cc(F)c(Cl)cc2Cl)cc1OC	53.6	37.7	28.8	21.9	32.7	18.5	> 100	32.6	32.5	37.1	37.1
O=S(=O)(O)c1ccc2c(N=Nc3ccccc3)c(O)c(S(=O)(=O)O)cc2c1	> 100	> 100	> 100	> 100	> 100	> 100	> 100	> 100	> 100	> 100	> 100
CCN(CC)c1ccc(/C=c2\nc(-c3ccccc3)n3c2nc2ccccc23)cc1	45.8	11.4	32.2	> 100	61	18.8	> 100	23.3	99.3	> 100	52.3
NNC(=O)Cc1cccnc1	> 100	> 100	> 100	> 100	> 100	> 100	> 100	> 100	> 100	> 100	> 100
CC(C)=CCC/C(=C\CC/C(=C\CCc1ccoc1)C(=O)O)C(=O)O	> 100	> 100	> 100	> 100	> 100	> 100	> 100	> 100	> 100	> 100	> 100
Cc1ccc(C(=O)Cc2nc3ncccc3[nH]c2=O)cc1	> 100	74.9	84	> 100	> 100	70.4	71.3	> 100	> 100	> 100	72.3
O=C(O)CS(=O)c1ccc2c3c(cccc13)C(=O)c1ccccc1-2 (stereo not drawn)	> 100	> 100	> 100	> 100	> 100	> 100	> 100	> 100	> 100	> 100	> 100
COc1cc(CCNC2=CC(=O)c3cccnc3C2=O)ccc1O	2.6	3.04	3.87	2.58	4.07	4.8	3.56	3.58	2.18	7.6	2.32
CC(=O)OC(CC(C)C)P1(=O)N(CC(C)(C)C)[C@@H]2CCCC[C@H]2N1CC(C)(C)C (stereo partly drawn)	20.4	22.3	23.6	23.4	18.1	16.2	25.3	18.3	21.4	19.3	22.8
